{"source": "paper PMC5824344", "about": "(ACS Chemical Biology, 2017)", "key": {"[1]": {"target": "T1, human lysosomal α-glucosidase (Homo sapiens, UniProt P10253)", "T1 construct": "purchased Sanofi Genzyme", "test": "Inhibition of human lysosomal α-glucosidase (α-p-nitrophenylglucoside substrate)", "format": "biochemical", "settings": "for IC50: isolated enzyme in vitro, mean of three measurements, read-out: IC50, α-Glucosidase, Human lysosome"}, "[2]": {"tested_on": "GluI and GluII in HL60 (promyelocytic) cells", "test": "Free oligosaccharide (FOS) assay in HL60 cells", "format": "cell-based, human", "settings": "48 h", "experimental": "(§1) 5 Cell and Virus Culture and Assays\n(§2) 5.1 Culture of Cell Lines\nThe human hepatoma cell line Huh7.5 (Apath, LLC) was cultured in Dulbecco’s modiﬁed Eagle medium (DMEM) with Glutamax (Gibco) supplemented with 100 µg mL−1 strepto-mycin (Sigma), 100 U mL−1 penicillin (Sigma), 100 µm MEM non-essential amino acids (Gibco) and 10% (volume/volume, v/v) heat-inactivated (56 ◦C, 30 min) fetal calf serum (FCS, Seralab). The human monocytic cell line HL60 (ATCC), human T lymphocyte cell line Jurkat (ATCC), and human B lymphocyte cell line Raji (ATCC) were each maintained in RPMI 1640 media with Glutamax (Gibco) supplemented with 100 µg mL−1 streptomycin, 100 U mL−1 penicillin and 10% (v/v) FCS. The monkey kidney cell line LLC-MK2 (a gift from Armed Forces Research Institute of Medical Sciences, Thailand) was cultured in M199 media (Gibco) supplemented with 2 mm l-glutamine, 100 µg mL−1 streptomycin, 100 U mL−1 penicillin and 20% (v/v) FCS. Subsequently, these are referred to as growth media for each cell line. Unless otherwise indicated, all cell incubations were carried out at 37 ◦C and 5% CO2. All cells were maintained as mycoplasma free, with regular veriﬁcations by polymerase chain reaction (PCR).\n5.2 Isolation and Culture of Primary Human MDMΦ\nPrimary human MDMΦ were generated from human monocytes isolated from buﬀy coats (NHS Blood and Transplant, surplus to clinical requirements) as described previously 5 and cultured in X-VIVO10 medium (Lonza) supplemented with 1% (v/v) heat-inactivated (56◦C, 30 min) autologous plasma. The use of human blood was approved by the NHS National Research Ethics Service (09/H0606/3).\n(§3) Cell viability was measured using the CellTiter 96 R© AQueous One Solution Cell Prolifera-tion MTA (3-(4,5-dimethylthiazol-2-yl)-5-(3-carboxymethoxyphenyl)-2-(4-sulfophenyl)-2H - […]\ntetrazolium, inner salt) Assay (Promega) according to the manufacturer’s instruction. Brieﬂy, cells were treated in triplicate either for 4 d (Huh7.5) or 2 d (all other cell types). […]\n(§4) After a further one to two hour incubation, the absorbance at 490 nm was measured on a Molecular Devices SpectraMax M5 microplate reader. […]\n(§5) Absorbances were averaged across replicates, and corrected for background by subtracting the value for media-only wells. Each drug treatment was then evaluated as a percentage of untreated cells. […]\nFOS analysis was carried out as described previously. […] Before purifying the FOS, each sample was analyzed for protein content using the modiﬁed Bradford assay. […] The labelled glycans were then analyzed by normal phase high performance liquid chromatography. Retention times and peak area were used to identify and quantify glycans, respectively, by comparison to standards of known identity and molar quantity. FOS quantities were normalized to protein levels."}, "[3]": {"tested_on": "GluI and GluII in Jurkat (T lymphocyte) cells", "test": "Free oligosaccharide (FOS) assay in Jurkat cells", "format": "cell-based, human", "settings": "48 h, 50 µm", "experimental": "as §1, §2\n(§6) The human hepatoma cell line Huh7.5 (Apath, LLC) was cultured in Dulbecco’s modiﬁed Eagle medium (DMEM) with Glutamax (Gibco) supplemented with 100 µg mL−1 strepto-mycin (Sigma), 100 U mL−1 penicillin (Sigma), 100 µm MEM non-essential amino acids (Gibco) and 10% (volume/volume, v/v) heat-inactivated (56 ◦C, 30 min) fetal calf serum (FCS, Seralab). The human monocytic cell line HL60 (ATCC), human T lymphocyte cell line Jurkat (ATCC), and human B lymphocyte cell line Raji (ATCC) were each maintained in RPMI 1640 media with Glutamax (Gibco) supplemented with 100 µg mL−1 streptomycin, 100 U mL−1 penicillin and 10% (v/v) FCS. […]\nas §3, §4, §5\n(§7) FOS analysis was carried out as described previously. […] Before purifying the FOS, each sample was analyzed for protein content using the modiﬁed Bradford assay. […]"}, "[4]": {"tested_on": "GluI and GluII in Raji (B lymphocyte) cells", "test": "Free oligosaccharide (FOS) assay in Raji cells", "format": "cell-based, human", "settings": "48 h, 50 µm", "experimental": "as §1, §2, §6, §3, §4, §5, §7"}}, "data": [{"molecule": "CCCCN1CC(O)C(O)C(O)C1CO", "note": "[Compound 2, N-butyl-D-1-deoxynojirimycin, reference compound]", "values": [{"measurement": "IC50", "setting": "[1]", "result": 2100, "unit": "nM"}, {"measurement": "glucosylated free oligosaccharides (FOS) observed after treatment", "setting": "[2]; 10 µm", "result": "produced glucosylated FOS"}]}, {"molecule": "Cc1c(C)c2c(c(C)c1OCCCCCN1CC(O)C(O)C(O)C1CO)CCC(C)(CCCC(C)CCCC(C)CCCC(C)C)O2", "note": "(centres unmarked) [Compound 4, 5′-tocopheroxypentyl-DNJ]", "values": [{"measurement": "glucosylated free oligosaccharides (FOS) observed after treatment", "setting": "[3]", "result": "not in Jurkat"}, {"measurement": "glucosylated free oligosaccharides (FOS) observed after treatment", "setting": "[3]; listed as ToP-DNJ 4", "result": "no glucosylated FOS were detected"}, {"measurement": "inhibition at 50 µM", "setting": "[1]; 50 μM, read-out: inhibition of lysosomal glucosidase at the maximum tested concentration", "result": "< 50", "unit": "%"}, {"measurement": "IC50", "setting": "[1]", "result": "> 50000", "unit": "nM"}, {"measurement": "glucosylated free oligosaccharides (FOS) observed after treatment", "setting": "[2]; 10 µm", "result": "did not"}, {"measurement": "glucosylated free oligosaccharides (FOS) observed after treatment", "setting": "[2]; 50 µm", "result": "detected"}, {"measurement": "glucosylated free oligosaccharides (FOS) observed after treatment", "setting": "[2]; 50 µm, listed as ToP-DNJ 4", "result": "production of monoglucosylated FOS"}, {"measurement": "glucosylated free oligosaccharides (FOS) observed after treatment", "setting": "[4]", "result": "nor Raji"}, {"measurement": "glucosylated free oligosaccharides (FOS) observed after treatment", "setting": "[4]; listed as ToP-DNJ 4", "result": "no glucosylated FOS were detected"}]}]}
